Assay results taken from US20070128217A1 (priority 2003, published 2007).

What was measured:
[1] = test system: rabbit serum obtained by immunizing a rabbit with the SARS-CoV strain Frankfurt 1; format: binding; design: Binding of a rabbit serum to linear peptides / Binding of a rabbit serum to looped peptides / Rabbit serum linear peptides / Rabbit serum looped peptides / Binding of a rabbit serum to linear peptides of protein N of SARS-CoV Urbani (Rabbit serum linear peptides) / Binding of a rabbit serum to looped/cyclic peptides of protein N of SARS-CoV Urbani (Rabbit serum looped peptides): unit not given here
[2] = test system: control sera (pooled serum of ten healthy LUMC hospital workers; commercial negative donor pooled serum from the Dutch bloodbank); format: binding, human; design: Binding of Control serum LUMC to linear peptides / Binding of Control serum Blood-bank to linear peptides / Binding of Control serum LUMC to looped peptides / Binding of Control Serum Blood-Bank to Looped peptides / Binding of Control serum LUMC to linear peptides of the protein M of SARS-CoV Urbani / Binding of Control serum Blood-bank to linear peptides of the protein M of SARS-CoV Urbani / Binding of Control serum LUMC to looped peptides of the protein M of SARS-CoV Urbani / Binding of Control Serum Blood-Bank to Looped peptides of the protein M of SARS-CoV Urbani: unit not given here
[3] = test system: recombinant human anti-SARS-CoV antibody 03-018; format: binding; design: Binding of antibody 03-018 to linear peptides of the N protein of SARS-CoV Urbani / Binding of antibody 03-018 to looped/cyclic peptides of the N protein of SARS-CoV Urbani: unit not given here
[4] = test system: antibodies in sera from SARS patients (sera 1a, 1b, 2, 6, 37, 62, London, SARS-yellow, SARS-green); format: binding, human; design: Binding of serum 6 to linear peptides of protein X1 of SARS-CoV Urbani / Binding of serum 37 to linear peptides of protein X1 of SARS-CoV Urbani / Binding of serum 6 to looped/cyclic peptide (PEPSCAN-ELISA) / Binding of serum 37 to looped/cyclic peptide (PEPSCAN-ELISA) / Binding of serum 37 to looped/cyclic peptides of protein X1 of SARS-CoV Urbani / Binding of serum 6 to linear peptides of protein X2 / Binding of serum 37 to linear peptides of protein X2 / Binding of serum 37 to looped/cyclic peptides of protein X2 of SARS-CoV Urbani / Binding of serum 6 to linear peptides of protein M of SARS-CoV Urbani / Binding of serum 37 to linear peptides of protein M of SARS-CoV Urbani / Binding of serum 6 to looped/cyclic peptides of protein M of SARS-CoV Urbani / Binding of serum 37 to looped/cyclic peptides of protein M of SARS-CoV Urbani / Binding of serum 6 to linear peptides of protein X3 of SARS-CoV Urbani / Binding of serum 37 to linear peptides of protein X3 of SARS-CoV Urbani / Binding of serum 37 to looped/cyclic peptides of protein X3 of SARS-CoV Urbani / Binding of serum 6 to linear peptides of protein X4 of SARS-CoV Urbani / Binding of serum 37 to linear peptides of protein X4 of SARS-CoV Urbani / Binding of serum 37 to looped/cyclic peptides of protein X4 of SARS-CoV Urbani / Binding of serum 6 to linear peptides of protein X5 of SARS-CoV Urbani / Binding of serum 37 to linear peptides of protein X5 of SARS-CoV Urbani / Binding of serum 37 to looped/cyclic peptides of protein X5 of SARS-CoV Urbani / Binding of serum 6 to linear peptides of protein N of SARS-CoV Urbani / Binding of serum 37 to linear peptides of protein N of SARS-CoV Urbani / Binding of serum 6 to linear peptide (PEPSCAN-ELISA) / Binding of serum 1a to looped/cyclic peptides of protein N of SARS-CoV Urbani / Binding of serum 1b to looped/cyclic peptides of protein N of SARS-CoV Urbani / Binding of serum 2 to looped/cyclic peptides of protein N of SARS-CoV Urbani / Binding of serum 6 to looped/cyclic peptides of protein N of SARS-CoV Urbani / Binding of serum 37 to looped/cyclic peptides of protein N of SARS-CoV Urbani / Binding of serum 62 to looped/cyclic peptides of protein N of SARS-CoV Urbani / Binding of serum London to looped/cyclic peptides of protein N of SARS-CoV Urbani / Binding of serum SARS-green to looped/cyclic peptides of protein N of SARS-CoV Urbani: unit not given here

FSRQLQNSMSGASAD
Binding of a rabbit serum to linear peptides of protein N of SARS-CoV Urbani (Rabbit serum linear peptides) [1]: 0.4 | Binding of a rabbit serum to looped/cyclic peptides of protein N of SARS-CoV Urbani (Rabbit serum looped peptides) [1]: 0.1 | Control Serum Blood-Bank Looped peptides [2]: 0.4 | Control serum Blood-bank linear peptides [2]: 0.7 | Control serum LUMC linear peptides [2]: 0.6 | Control serum LUMC looped peptides [2]: 0.2 | Binding of antibody 03-018 to linear peptides of the N protein of SARS-CoV Urbani [3]: 0.1 | Binding of antibody 03-018 to looped/cyclic peptides of the N protein of SARS-CoV Urbani [3]: 0.2 | Binding of serum 1a to linear peptides of protein N of SARS-CoV Urbani [4]: 0.2 | Binding of serum 1a to looped/cyclic peptides of protein N of SARS-CoV Urbani [4]: 0.2 | Binding of serum 1b to linear peptides of protein N of SARS-CoV Urbani [4]: 0.1 | Binding of serum 1b to looped/cyclic peptides of protein N of SARS-CoV Urbani [4]: 0.1 | Binding of serum 2 to linear peptides of protein N of SARS-CoV Urbani [4]: 0.1 | Binding of serum 2 to looped/cyclic peptides of protein N of SARS-CoV Urbani [4]: 0.2 | Binding of serum 6 to linear peptides of protein N of SARS-CoV Urbani [4]: 0.2 | Binding of serum 6 to looped/cyclic peptides of protein N of SARS-CoV Urbani [4]: 0.1 | Binding of serum 37 to linear peptides of protein N of SARS-CoV Urbani [4]: 0.7 | Binding of serum 37 to looped/cyclic peptides of protein N of SARS-CoV Urbani [4]: 0.4 | Binding of serum 62 to linear peptides of protein N of SARS-CoV Urbani [4]: 0.6 | Binding of serum 62 to looped/cyclic peptides of protein N of SARS-CoV Urbani [4]: 0.2 | Binding of serum London to linear peptides of protein N of SARS-CoV Urbani [4]: 0.6 | Binding of serum London to looped/cyclic peptides of protein N of SARS-CoV Urbani [4]: 0.2 | Binding of serum SARS-green to linear peptides of protein N of SARS-CoV Urbani [4]: 0.6 | Binding of serum SARS-green to looped/cyclic peptides of protein N of SARS-CoV Urbani [4]: 0.0 | Binding of serum SARS-yellow to linear peptides of protein N of SARS-CoV Urbani [4]: 0.4 | Binding of serum SARS-yellow to looped/cyclic peptides of protein N of SARS-CoV Urbani [4]: 0.0

FTALTQHGKEELRFP
Binding of a rabbit serum to linear peptides of protein N of SARS-CoV Urbani (Rabbit serum linear peptides) [1]: 0.2 | Binding of a rabbit serum to looped/cyclic peptides of protein N of SARS-CoV Urbani (Rabbit serum looped peptides) [1]: 0.1 | Binding of Control Serum Blood-Bank to Looped peptides [2]: 0.5 | Binding of Control serum Blood-bank to linear peptides [2]: 0.7 | Binding of Control serum LUMC to linear peptides [2]: 0.7 | Binding of Control serum LUMC to looped peptides [2]: 0.3 | Binding of antibody 03-018 to linear peptides of the N protein of SARS-CoV Urbani [3]: 0.1 | Binding of antibody 03-018 to looped/cyclic peptides of the N protein of SARS-CoV Urbani [3]: 0.2 | Binding of serum 1a to linear peptides of protein N of SARS-CoV Urbani [4]: 0.3 | Binding of serum 1a to looped/cyclic peptides of protein N of SARS-CoV Urbani [4]: 0.2 | Binding of serum 1b to linear peptides of protein N of SARS-CoV Urbani [4]: 0.2 | Binding of serum 1b to looped/cyclic peptides of protein N of SARS-CoV Urbani [4]: 0.1 | Binding of serum 2 to linear peptides of protein N of SARS-CoV Urbani [4]: 0.3 | Binding of serum 2 to looped/cyclic peptides of protein N of SARS-CoV Urbani [4]: 0.3 | Binding of serum 6 to linear peptides of protein N of SARS-CoV Urbani [4]: 0.2 | Binding of serum 6 to looped/cyclic peptides of protein N of SARS-CoV Urbani [4]: 0.1 | Binding of serum 37 to linear peptides of protein N of SARS-CoV Urbani [4]: 0.8 | Binding of serum 37 to looped/cyclic peptides of protein N of SARS-CoV Urbani [4]: 0.4 | Binding of serum 62 to linear peptides of protein N of SARS-CoV Urbani [4]: 0.7 | Binding of serum 62 to looped/cyclic peptides of protein N of SARS-CoV Urbani [4]: 0.3 | Binding of serum London to linear peptides of protein N of SARS-CoV Urbani [4]: 0.5 | Binding of serum London to looped/cyclic peptides of protein N of SARS-CoV Urbani [4]: 0.2 | Binding of serum SARS-green to linear peptides of protein N of SARS-CoV Urbani [4]: 0.7 | Binding of serum SARS-green to looped/cyclic peptides of protein N of SARS-CoV Urbani [4]: 0.0 | Binding of serum SARS-yellow to linear peptides of protein N of SARS-CoV Urbani [4]: 0.6 | Binding of serum SARS-yellow to looped/cyclic peptides of protein N of SARS-CoV Urbani [4]: 0.1

FYYLGTGPEASLPYG
Binding of a rabbit serum to linear peptides of protein N of SARS-CoV Urbani (Rabbit serum linear peptides) [1]: 0.1 | Binding of a rabbit serum to looped/cyclic peptides of protein N of SARS-CoV Urbani (Rabbit serum looped peptides) [1]: 0.6 | Binding of Control Serum Blood-Bank to Looped peptides [2]: 0.7 | Binding of Control serum Blood-bank to linear peptides [2]: 0.6 | Binding of Control serum LUMC to linear peptides [2]: 0.7 | Binding of Control serum LUMC to looped peptides [2]: 0.7 | Binding of antibody 03-018 to linear peptides of the N protein of SARS-CoV Urbani [3]: 0.1 | Binding of antibody 03-018 to looped/cyclic peptides of the N protein of SARS-CoV Urbani [3]: 0.2 | Binding of serum 1a to linear peptides of protein N of SARS-CoV Urbani [4]: 0.3 | Binding of serum 1a to looped/cyclic peptides of protein N of SARS-CoV Urbani [4]: 0.4 | Binding of serum 1b to linear peptides of protein N of SARS-CoV Urbani [4]: 0.1 | Binding of serum 1b to looped/cyclic peptides of protein N of SARS-CoV Urbani [4]: 0.3 | Binding of serum 2 to linear peptides of protein N of SARS-CoV Urbani [4]: 0.2 | Binding of serum 2 to looped/cyclic peptides of protein N of SARS-CoV Urbani [4]: 0.4 | Binding of serum 6 to linear peptides of protein N of SARS-CoV Urbani [4]: 0.2 | Binding of serum 6 to looped/cyclic peptides of protein N of SARS-CoV Urbani [4]: 0.2 | Binding of serum 37 to linear peptides of protein N of SARS-CoV Urbani [4]: 0.6 | Binding of serum 37 to looped/cyclic peptides of protein N of SARS-CoV Urbani [4]: 0.7 | Binding of serum 62 to linear peptides of protein N of SARS-CoV Urbani [4]: 0.7 | Binding of serum 62 to looped/cyclic peptides of protein N of SARS-CoV Urbani [4]: 0.6 | Binding of serum London to linear peptides of protein N of SARS-CoV Urbani [4]: 0.5 | Binding of serum London to looped/cyclic peptides of protein N of SARS-CoV Urbani [4]: 0.5 | Binding of serum SARS-green to linear peptides of protein N of SARS-CoV Urbani [4]: 0.4 | Binding of serum SARS-green to looped/cyclic peptides of protein N of SARS-CoV Urbani [4]: 0.4 | Binding of serum SARS-yellow to linear peptides of protein N of SARS-CoV Urbani [4]: 0.7 | Binding of serum SARS-yellow to looped/cyclic peptides of protein N of SARS-CoV Urbani [4]: 0.7
